Results on two compounds are retold here after EP4778929A1, “NOVEL TYPE I TOPOISOMERASE INHIBITOR, AND PREPARATION METHOD THEREFOR AND USE THEREOF” (priority 2023, dated 2025).

Read-outs that look alike come from different tables or passages of the source.

The target in assay [1] is T1, topoisomerase I (Topo I) (Homo sapiens, UniProt P11387).
T1 sequence (P11387 1-765): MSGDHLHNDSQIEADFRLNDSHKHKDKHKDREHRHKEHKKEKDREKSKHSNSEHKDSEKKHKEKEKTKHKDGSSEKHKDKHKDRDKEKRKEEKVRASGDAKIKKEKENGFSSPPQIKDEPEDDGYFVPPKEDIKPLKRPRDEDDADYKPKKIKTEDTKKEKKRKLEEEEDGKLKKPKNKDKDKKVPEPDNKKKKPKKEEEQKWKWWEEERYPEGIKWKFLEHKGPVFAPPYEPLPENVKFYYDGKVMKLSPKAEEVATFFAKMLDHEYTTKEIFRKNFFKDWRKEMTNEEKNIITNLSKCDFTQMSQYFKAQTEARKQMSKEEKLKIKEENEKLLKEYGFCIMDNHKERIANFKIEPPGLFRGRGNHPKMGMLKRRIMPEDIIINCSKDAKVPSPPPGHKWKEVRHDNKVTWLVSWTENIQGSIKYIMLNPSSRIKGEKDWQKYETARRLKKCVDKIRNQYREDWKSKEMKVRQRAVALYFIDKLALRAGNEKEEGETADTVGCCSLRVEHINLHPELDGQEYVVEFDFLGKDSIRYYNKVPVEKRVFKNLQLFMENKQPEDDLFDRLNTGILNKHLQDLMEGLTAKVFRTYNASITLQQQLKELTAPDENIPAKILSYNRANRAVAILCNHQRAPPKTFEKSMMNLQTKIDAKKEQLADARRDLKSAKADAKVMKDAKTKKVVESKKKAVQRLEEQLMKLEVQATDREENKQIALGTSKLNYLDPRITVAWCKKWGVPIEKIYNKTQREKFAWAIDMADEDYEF
The assay can be described thus: Topo I enzyme-inhibitory activity by agarose-gel electrophoresis (plasmid relaxation). It is filed as biochemical. The method in brief:
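Supercoiled pNO1 plasmid (0.5 µg) was relaxed by Topo I (0.75 U) in 20 mM Tris-HCl pH 7.5, 200 mM NaCl, 0.25 mM EDTA, 5 % glycerol, 5 % DMSO final, for 30 min at 37 °C. Supercoiled band intensity on agarose gel was normalized to no-enzyme and vehicle controls. IC50 from a four-parameter logistic fit.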

For assay [2], the system named is HCT116 cells. The assay can be described thus: Inhibition of cell proliferation by CTG (CellTiter-Glo) luminescence assay. Type of assay: cell-based. To be noted: Homo sapiens, HCT-116, 72 h, read-out: HCT116, IC50. The method in brief: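 Nine-point 1:3 dilutions applied to HCT116 cells (2 000/well, McCoy's 5a + 10 % FBS) for 72 h at 37 °C, final DMSO 0.25 %. Viability read by CellTiter-Glo luminescence; % inhibition versus DMSO controls fitted to four-parameter logistic for IC50.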
A general note: Cellular ATP, detected with luciferase, serves as a proxy for viable cell number.

Usually IC50 stands for the concentration that gives 50% inhibition. With `CC[C@@]1(O)C(=O)OCc2c1cc1n(c2=O)Cc2c-1c(=O)c1cc(F)cc(C)c1n2C` [Example 2, (S)-4-ethyl-8-fluoro-4-hydroxy-10,11-dimethyl-1,12-dihydro-14H-pyrano[3,4:6,7]indolizino[2,1-b]quinoline-3,6,14(4H,11H)-trione], the concentration for half-maximal inhibition (IC50) is < 200 nM in assay [1] and < 20 nM in assay [2].
For the compound `CC[C@@]1(O)C(=O)OCc2c1cc1n(c2=O)Cc2c-1c(=O)c1cc(F)ccc1n2CCN(C)C1CCCC1` [Example 117], the IC50 is 200 to 500 nM in assay [1] (read-out: inhibition of topoisomerase I (Topo I) enzymatic activity, IC50, 0.75 U Topo I, pNO1 plasmid, 37 °C, 30 min, compounds listed by group (Group A / Group B)) and < 20 nM in assay [2].
